Laboratory results published in PubChem BioAssay AID2060616 (Molecular Pharmacology Branch, DTP, NCI, 2025).
pIC50: −log10 of the molar value. One block for each molecule: values may come before it.

Test system: 377384-186-R-J1-PDC complex spheroid viability
Experiment: Anticancer human tumor 377384-186-R-J1-PDC patient-derived pancreatic carcinoma cell line growth inhibition [CLK]
Conditions: for pIC50: curve of first compound; for viability, T/C: stronger effect = lower value
Method in brief: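 Patient-derived tumor cells grown as complex spheroids with HUVEC endothelial cells and mesenchymal stem cells, treated with drug combinations. Concentrations descend in half-log steps from near clinical Cmax, or from 10 microM if Cmax unknown.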

[1] = second compound 0.0316 µM, first compound 0.00316 µM
[2] = second compound 0.0316 µM, first compound 0.01 µM
[3] = second compound 0.0316 µM, first compound 0.0316 µM
[4] = second compound 0.0316 µM, first compound 0.1 µM
[5] = second compound 0.1 µM, first compound 0.00316 µM
[6] = second compound 0.1 µM, first compound 0.01 µM
[7] = second compound 0.1 µM, first compound 0.0316 µM
[8] = second compound 0.1 µM, first compound 0.1 µM
[9] = second compound 0.316 µM, first compound 0.00316 µM
[10] = second compound 0.316 µM, first compound 0.01 µM
[11] = second compound 0.316 µM, first compound 0.0316 µM
[12] = second compound 0.316 µM, first compound 0.1 µM
[13] = second compound 1 µM, first compound 0.00316 µM
[14] = second compound 1 µM, first compound 0.01 µM
[15] = second compound 1 µM, first compound 0.0316 µM
[16] = second compound 1 µM, first compound 0.1 µM
[17] = second compound 3.16 µM, first compound 0.00316 µM
[18] = second compound 3.16 µM, first compound 0.01 µM
[19] = second compound 3.16 µM, first compound 0.0316 µM
[20] = second compound 3.16 µM, first compound 0.1 µM
[21] = second compound 10 µM, first compound 0.00316 µM
[22] = second compound 10 µM, first compound 0.01 µM
[23] = second compound 10 µM, first compound 0.0316 µM
[24] = second compound 10 µM, first compound 0.1 µM
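Also: spheroids exposed to agents for 7 days before reading.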
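For viability, T/C in this document: luminescence signal used as a stand-in for viable cells.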

pIC50 (second compound 0.0316 µM): > 8.50
pIC50 (second compound 0.1 µM): > 8.50
pIC50 (second compound 0.316 µM): > 8.50
pIC50 (second compound 1 µM): > 8.50
pIC50 (second compound 3.16 µM): > 8.50
pIC50 (second compound 10 µM): > 8.50
Structure (SMILES): CCc1c2c(nc3ccc(O)cc13)-c1cc3c(c(=O)n1C2)COC(=O)[C@]3(O)CC + CNC(=O)c1ccc(Nc2nc(OC3CCCC3)c3c(-c4ccc5nc(C)oc5c4)c[nH]c3n2)c(OC)c1
viability, T/C [1]: 25.8%
viability, T/C [2]: 11.6%
viability, T/C [3]: 4.72%
viability, T/C [4]: 2.28%
viability, T/C (second compound 0.0316 µM, first compound 0.316 µM): 1.46%
viability, T/C (second compound 0.0316 µM, first compound 1 µM): 0.55%
viability, T/C [5]: 17.5%
viability, T/C [6]: 9.08%
viability, T/C [7]: 4.28%
viability, T/C [8]: 2.07%
viability, T/C (second compound 0.1 µM, first compound 0.316 µM): 1.21%
viability, T/C (second compound 0.1 µM, first compound 1 µM): 0.63%
viability, T/C [9]: 10.7%
viability, T/C [10]: 7%
viability, T/C [11]: 3.57%
viability, T/C [12]: 2.54%
viability, T/C (second compound 0.316 µM, first compound 0.316 µM): 1.19%
viability, T/C (second compound 0.316 µM, first compound 1 µM): 0.53%
viability, T/C [13]: 12.9%
viability, T/C [14]: 8.91%
viability, T/C [15]: 3.7%
viability, T/C [16]: 1.76%
viability, T/C (second compound 1 µM, first compound 0.316 µM): 1.06%
viability, T/C (second compound 1 µM, first compound 1 µM): 0.66%
viability, T/C [17]: 14.4%
viability, T/C [18]: 8.07%
viability, T/C [19]: 3.3%
viability, T/C [20]: 1.8%
viability, T/C (second compound 3.16 µM, first compound 0.316 µM): 1.68%
viability, T/C (second compound 3.16 µM, first compound 1 µM): 0.58%
viability, T/C [21]: 13.4%
viability, T/C [22]: 8.53%
viability, T/C [23]: 3.76%
viability, T/C [24]: 1.55%
viability, T/C (second compound 10 µM, first compound 0.316 µM): 0.98%
viability, T/C (second compound 10 µM, first compound 1 µM): 0.79%

pIC50 (second compound 0.0316 µM): < 7.00
pIC50 (second compound 0.1 µM): > 9.50
pIC50 (second compound 0.316 µM): > 9.50
pIC50 (second compound 1 µM): > 9.50
pIC50 (second compound 3.16 µM): > 9.50
pIC50 (second compound 10 µM): > 9.50
Structure (SMILES): Cn1ncnc1[C@H]1c2n[nH]c(=O)c3cc(F)cc(c23)N[C@@H]1c1ccc(F)cc1 + CNC(=O)c1ccc(Nc2nc(OC3CCCC3)c3c(-c4ccc5nc(C)oc5c4)c[nH]c3n2)c(OC)c1
viability, T/C (second compound 0.0316 µM, first compound 0.000316 µM): 91.7%
viability, T/C (second compound 0.0316 µM, first compound 0.001 µM): 87.6%
viability, T/C [1]: 61.8%
viability, T/C [2]: 56.3%
viability, T/C [3]: 53.6%
viability, T/C [4]: 48.8%
viability, T/C (second compound 0.1 µM, first compound 0.000316 µM): 48.7%
viability, T/C (second compound 0.1 µM, first compound 0.001 µM): 42.7%
viability, T/C [5]: 36.5%
viability, T/C [6]: 39%
viability, T/C [7]: 34.3%
viability, T/C [8]: 28.7%
viability, T/C (second compound 0.316 µM, first compound 0.000316 µM): 16.8%
viability, T/C (second compound 0.316 µM, first compound 0.001 µM): 18.2%
viability, T/C [9]: 19.2%
viability, T/C [10]: 17.4%
viability, T/C [11]: 16%
viability, T/C [12]: 14.9%
viability, T/C (second compound 1 µM, first compound 0.000316 µM): 21.5%
viability, T/C (second compound 1 µM, first compound 0.001 µM): 18.2%
viability, T/C [13]: 17.6%
viability, T/C [14]: 15.9%
viability, T/C [15]: 15.6%
viability, T/C [16]: 15.6%
viability, T/C (second compound 3.16 µM, first compound 0.000316 µM): 16.9%
viability, T/C (second compound 3.16 µM, first compound 0.001 µM): 18.6%
viability, T/C [17]: 17.3%
viability, T/C [18]: 20%
viability, T/C [19]: 15.6%
viability, T/C [20]: 15.3%
viability, T/C (second compound 10 µM, first compound 0.000316 µM): 18.7%
viability, T/C (second compound 10 µM, first compound 0.001 µM): 17.5%
viability, T/C [21]: 20.7%
viability, T/C [22]: 16.4%
viability, T/C [23]: 18.5%
viability, T/C [24]: 14.8%
